# Measurements published in patent publication US11400137B2, “Rectal insulin for treatment of inflammatory bowel diseases” (University of Copenhagen, priority 2016, dated 2022).
# “Also recorded” adds a separate entry of the source. Where two headings read alike, the source gives them in different places.
# How the values were obtained:
# [1] = tested on: mice with DSS induced colitis (AOM+DSS); assay: AOM+DSS colitis/carcinogenesis model, rectal insulin intervention study (2% DSS); format: in vivo, mouse
# Description: In the azoxymethane and dextran sulphate sodium (AOM/DSS) carcinogenesis/colitis model, colitis is induced by DSS which promotes AOM induced tumours. This AOM/DSS model was used on mice having intestinal specific inactivation of the insulin receptor. These mice were obtained by crossing mice (B6.129S4(FVB)-Insrtm1Khn/J) with loxP sites flanking exon 4 in the insulin receptor gene with mice (B6.Cg-Tg(Vil-cre)997Gum/J) expressing the cre-recombinase under the villin promoter (both mice were obtained commercially from the Jackson Laboratory).
# The discovery that inactivated insulin signalling in the intestine augments inflammation and stimulates development of inflammation induced tumours, prompted us to the invention that insulin might be used to treat colitis. This was investigated in an intervention study. Thus, wild type mice were set up in the AOM+DSS regime and divided into two groups. One group of mice was treated with rectal administration of insulin while the control group was treated with vehicle (phosphate buffered saline; PBS).
# (§1) The insulin treatment regime was as follows: Each day during DSS treatment and the following first 4 days during remission (no DSS treatment) the mice were anaesthetized with isoflurane and 600 μl PBS or PBS+0.06 units human insulin was injected intra rectally. For the injection, a syringe fitted with a flexible silicone feeding needle (for rodents) was used. The mice were placed on their back with the lower end elevated for 10 minutes while still in isoflurane anaesthesia. After recovery from anaesthesia the mice were returned to their cages. The mice were weighed daily and signs of rectal bleeding scored.
# [2] = tested on: mice with DSS induced colitis (AOM+DSS); assay: AOM+DSS + rectal insulin dose-response experiment (3% DSS); format: in vivo, mouse
# Procedure: as §1
# In this experiment 3% DSS was used as opposed to 2% DSS in the previous experiment (FIG. 3). During induction of inflammation there is a significant (FIG. 6, t-test, p<0.05) effect of the administration of 6 u/kg insulin whereas there is no effect of only 2 u/kg administration. Specifically the weight loss (weight at the end of DSS treatment−the weight at the beginning of the DSS treatment) is 16% less in the 6 u/kg insulin group compared to the PBS group (4.3 g in the PBS group versus 3.6 g in the 6 u/kg insulin group; see FIG. 5.
# insulin receptor mRNA = assay: Colonic crypts cultured as organoids with and without insulin; format: cell-based; conditions: insulin added to organoid medium vs none (FIG. 8)
# Procedure: To investigate the effect of insulin on isolated colonic epithelial cells, colonic crypts were cultured as organoids with and without the addition of insulin to the medium. […] Several mechanisms are possible. First it is possible that insulin induces differentiation of the epithelial cells and that this process increases […]. Alternatively the insulin receptor may directly stimulate its own mRNA expression by yet undescribed mechanisms. The finding is important because the positive feedback loop is expected to prolong the duration of the insulin effect on the colonic mucosa.
# COX2 mRNA = COX2 mRNA expression in colons of mice with AOM+DSS induced inflammation; format: in vivo, mouse
# Description: Cyclooxygenase 2 (COX2/PTGS2) catalyzes the first step in the synthesis of the inflammatory mediators, the prostaglandins, from arachidonic acid. The expression of COX2 is increased in the colonic epithelial cells from patients with active colonic CD and UC and is therefore a biomarker for colonic inflammation in IBD.
# [3] = Procedure: C57BL6 mice were treated with 3% DSS in their drinking water. At the peak of inflammation, the mice were treated with rectal insulin and the blood glucose concentration measured at 0, 15, 30, 60, 90, 120 and 240 minutes. Anaesthesia was induced after the first measurement was taken at time point zero. Anaesthesia was complete at time point 15 minutes and rectal insulin instillation or PBS control instillation also begun at time point 15 minutes.
# Car3 mRNA = Car3 mRNA expression in colons during AOM+DSS induced intestinal inflammation; format: in vivo, mouse
# Description: On the contrary, in the INSR KO mice with inactivated insulin receptor in the intestinal epithelial cells the expression of Car3 was not increased by inflammation. Therefore it was investigated whether Car3 is a target for intestinal insulin signalling. The methodology described in Example 2 was followed.
# colonic epithelial cells = tested on: colonic epithelial cells
# Description: Sections of mouse colons from INSR KO mice and INSR Flox mice were stained with an antibody against the proliferation marker Ki67. Thereafter, sections of inflamed (DSS induced) colons obtained from C57BL6 mice treated with either PBS, 2 u or 6 units/kg insulin were also stained with an antibody directed against the Ki67 proliferation marker and the number of KI67 positive cells per crypt counted.
# [4] = 6 u/kg insulin, p<0.05 vs PBS, Fischer's exact test
substance,measurement,setting,value
insulin,weight loss from DSS start (day 1) to beginning of remission (day 8),"[1]; 2% DSS, 0.06 units human insulin in 600 μl PBS intra rectally daily, PBS group 2.56 g, t-test p<0.05",1.68 g
same,mice with tumours with a size greater than 2 mm,"[1]; PBS group 1.3 >2 mm tumours per mouse, p<0.05",0 mice
same,mice showing signs of rectal bleeding during treatment,"[1]; all PBS mice showed bleeding, p<0.05",two
same,"inflammation score by colonoscopy, late remission phase","[1]; blinded scoring of endoscopy videos, vs PBS",significant lower (and better) inflammation score; also recorded: improves inflammation score
same,body weight course (FIG. 3),[1]; daily rectal recombinant human insulin 2 units/kg,re-gained weight
same,Rectal bleeding: No bleeding (number of mice),"[2]; 2 u/kg insulin, PBS group 4",8
same,Rectal bleeding: Bleeding (number of mice),"[2]; 2 u/kg insulin, PBS group 9",3
same,"weight increase in remission phase, day 8 to day 11","[2]; 3% DSS, 2 and 6 u/kg rectal insulin (FIG. 7)",dose-dependent increase in weight
same,effect on weight loss during induction of inflammation,"[2]; 3% DSS, 2 u/kg rectal insulin",no effect
same,weight loss less than in the PBS group,"[2]; 3% DSS, 6 u/kg rectal insulin",16%
same,weight loss (weight at end of DSS treatment − weight at beginning),"[2]; 3% DSS, 6 u/kg rectal insulin, PBS group 4.3 g, p<0.05",3.6 g
same,Rectal bleeding: Bleeding (number of mice),[2]; [4],3
same,Rectal bleeding: No bleeding (number of mice),[2]; [4],12
same,concentration of insulin receptor mRNA,insulin receptor mRNA,increased almost two-fold
same,COX2 mRNA expression in colon,COX2 mRNA; 2 u/kg rectal insulin,significantly reduce
same,COX2 mRNA expression in colon,COX2 mRNA; 6 u/kg rectal insulin,significantly reduce
same,blood glucose concentration vs PBS control,"[3]; 3% DSS, peak of inflammation, 0-240 minutes, rectal insulin",No significant difference
same,systemic uptake of insulin following rectal instillation,[3]; inferred from blood glucose,negligible
same,Car3 mRNA expression in colon,Car3 mRNA; 2 u/kg rectal insulin,not
same,Car3 mRNA expression in colon,Car3 mRNA; 6 u/kg rectal insulin,significantly increased
same,"Ki67 positive cells per crypt, staining pattern vs PBS",colonic epithelial cells; 2 u/kg rectal insulin,No significant difference
same,"Ki67 positive cells per crypt, staining pattern vs PBS",colonic epithelial cells; 6 units/kg rectal insulin,No significant difference
